pIC50: −log10 of the molar value.
Columns and labels:
[1] = test system: A549 cells; assay: Mitotic activity (Ki67 index) by immunolabelling and confocal microscopy; assay type: cell-based, human; conditions: 24 h, control 90.6 ± 5.7%
Procedure: The studied biscoumarin derivatives were added to cells seeded on 12-well μ-Chamber slides for 24 h. After cultivation with the derivatives, the samples (both the control without the derivatives and experimental groups) were washed with a 0.1 M PBS solution buffer to remove all non-cell-absorbed derivative residues and fixed with 4% paraformaldehyde for 20 min at RT. Alternatively, cells were incubated with Mitotracker Red (0.5 µM; Thermo Fisher Scientific, Waltham, MA, USA) for 30 min at 37 °C, washed with 0.1 M PBS, and fixed with 4% paraformaldehyde for 20 min at RT. For the quantification of proliferative activity and programmed cell death, samples were incubated overnight at 4 °C with the mouse anti-Ki67 antibody (NCL-L-Ki67-MM1, 1:100, Leica Biosystems, Wetzlar, Germany) and rabbit anti-cleaved PARP (cat. no. 94885, 1:100, Cell Signaling, Danvers, MA, USA) diluted in 0.1 M PBS containing 1% normal donkey serum (Jackson Immunoresearch, Cambridgeshire, Great Britain) and 0.3% Triton-X 100. […]
All samples were evaluated using a Leica TCS SP5X confocal system (Leica Microsystems, Mannheim, Germany). The biscoumarin derivatives were visualized in cells using a 405 nm laser, and the fluorescence was captured in the range of 420–480 nm with identical exposure parameters for all samples. […] Microphotographs were taken with a 40× objective lens (NA = 0.75; voxel size 223 × 223 nm) and a 63× oil lens (NA = 1.4; voxel size 171 × 171 nm); the images were captured and analyzed using LAS AF software (Leica Microsystems, Wetzlar, Germany).
The proliferative activity of cells incubated with the studied derivatives was expressed as a Ki67 index. In all samples (n = 3 samples per each experimental group), the number of Ki67^+ nuclei was calculated in groups of 100 randomly selected cells. […]

[2] = biological target: T1, human recombinant AChE (Homo sapiens, UniProt P22303); assay: biochemical; assay type: biochemical; conditions: mean of at least three experiments
T1 construct: purchased Sigma-Aldrich, Prague, Czech Republic
Procedure: (§1) Human recombinant AChE (EC 3.1.1.7), 5,5′-dithiobis(2-nitrobenzoic acid) (Ellman′s reagent, DTNB), phosphate buffer (PB, 0.1 M, pH 7.4), and acetylthiocholine (ATC) and butyrylthiocholine (BTC), were purchased from Sigma-Aldrich, Prague, Czech Republic. Human plasma was used as a source of BChE and was prepared from heparinized human blood. The blood was centrifuged for 20 min (4 °C, 2300× g) on a Hettich Universal 320R centrifuge. The plasma was separated and stored at […]. Polystyrene Nunc 96-well microplates with a flat bottom shape (ThermoFisher Scientific, Waltham, MA, USA) were used for measuring purposes.
(§2) All of the assays were carried out in a 0.1 M phosphate buffer, pH 7.4. The assay medium (100 µL) consisted of 40 µL of 0.1 M phosphate buffer (pH 7.4), 20 µL of 0.01 M DTNB, 10 µL of the enzyme, and 20 µL of 0.01 M substrate ATC/BTC iodide solution).
(§3) The tested compounds were preincubated for 5 min prior to use. The reaction was initiated immediately upon addition of 20 µL of the substrate. […] Each concentration was assayed in triplicate. Software GraphPad Prism 5 (San Diego, CA, USA) was used in the evaluation of the statistical data.

[3] = biological target: T2, hBChE (human plasma) (Homo sapiens, UniProt P06276); assay: biochemical; assay type: biochemical; conditions: human plasma BChE, mean of at least three experiments
T2 construct: Human plasma was used as a source of BChE; from tissue; host or cells: human plasma from heparinized blood
Procedure: as §1, §2, §3

[4] = test system: A549 cells; assay: Colony-forming assay; assay type: cell-based, human; conditions: 65 μM, 24 h treatment, 7 days cultivation, vs untreated control
Procedure: For the colony-forming assay, floating and adherent cells were harvested together 24 h after treatment with the studied derivatives (35 and 65 µM). The cells were then counted using a Bürker chamber with eosin staining, and 500 viable cells per well were seeded in 6-well plates. After 7 days of cultivation under standard conditions, the cells in the plates were fixed and stained with 1% methylene blue dye in methanol. Visualized colonies were scanned and counted, and the results were evaluated as percentages of the untreated control. The results are presented as the average percentage of colonies from three independent experiments.

[5] = test system: A549 cells; assay: Cell cycle analysis (flow cytometry, PI); assay type: cell-based, human; conditions: 35 and 65 µM, 24 h
Procedure: For flow cytometric analysis of the cell cycle distribution, floating and adherent cells were harvested together 24 h after treatment with the derivatives (35 and 65 µM), washed in cold PBS, fixed in cold 70% ethanol, and stored overnight at −20 °C. Prior to analysis, the cells were washed twice in PBS, resuspended in a staining solution (0.1% Triton X-100, 0.137 g L^−1 ribonuclease A and 0.02 g L^−1 propidium iodide—PI), and incubated in dark conditions at RT for 30 min. The DNA content was analyzed using a BD FACSCalibur flow cytometer (Becton Dickinson, San Jose, CA, USA) with a 488 nm argon-ion excitation laser, and fluorescence was detected using a 585/42 nm band-pass filter (FL-2). ModFit 3.0 software (Verity Software House, Topsham, ME, USA) was used to generate DNA content frequency histograms and to quantify the percentage of cells in the individual cell cycle phases. The results are presented as the average ratio of cells in the individual phase to all cells from three independent experiments.

[6] = test system: A549 cells; assay: Quantification of cell number and viability (eosin staining); assay type: cell-based, human; conditions: 35 and 65 μM, 24 h, eosin negative cells
Procedure: For the assessment of total cell numbers and viability within individual experimental groups, floating and adherent cells were harvested after treatment with the studied derivatives and evaluated using a Bürker chamber with eosin staining. A549 cells were plated at a density of 135 × 10^3 cell/well into a 6-well plate and treated with different concentrations of derivatives (35 and 65 µM) for 24 hrs. The total cell number was expressed as a percentage of the total cell number of the untreated control. Viability was expressed as a percentage of viable, eosin negative cells. The results are presented as the average percentage of cells from three independent experiments.

T2 sequence (P06276 29-602): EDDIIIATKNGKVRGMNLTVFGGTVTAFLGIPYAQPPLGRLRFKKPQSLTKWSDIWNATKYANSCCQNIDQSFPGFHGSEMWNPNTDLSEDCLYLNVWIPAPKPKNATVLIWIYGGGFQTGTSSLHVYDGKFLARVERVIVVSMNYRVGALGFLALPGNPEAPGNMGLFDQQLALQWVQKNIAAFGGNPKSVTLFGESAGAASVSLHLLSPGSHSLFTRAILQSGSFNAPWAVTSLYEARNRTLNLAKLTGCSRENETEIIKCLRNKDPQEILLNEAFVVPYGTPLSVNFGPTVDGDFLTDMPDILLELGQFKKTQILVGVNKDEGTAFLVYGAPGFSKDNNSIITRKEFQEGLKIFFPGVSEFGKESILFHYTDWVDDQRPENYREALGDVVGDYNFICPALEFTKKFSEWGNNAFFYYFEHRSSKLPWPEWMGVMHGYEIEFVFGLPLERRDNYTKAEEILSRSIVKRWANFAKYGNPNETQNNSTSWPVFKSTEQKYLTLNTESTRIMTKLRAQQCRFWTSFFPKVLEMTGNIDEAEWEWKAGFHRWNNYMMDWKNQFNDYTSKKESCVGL
T1 sequence (P22303 32-614): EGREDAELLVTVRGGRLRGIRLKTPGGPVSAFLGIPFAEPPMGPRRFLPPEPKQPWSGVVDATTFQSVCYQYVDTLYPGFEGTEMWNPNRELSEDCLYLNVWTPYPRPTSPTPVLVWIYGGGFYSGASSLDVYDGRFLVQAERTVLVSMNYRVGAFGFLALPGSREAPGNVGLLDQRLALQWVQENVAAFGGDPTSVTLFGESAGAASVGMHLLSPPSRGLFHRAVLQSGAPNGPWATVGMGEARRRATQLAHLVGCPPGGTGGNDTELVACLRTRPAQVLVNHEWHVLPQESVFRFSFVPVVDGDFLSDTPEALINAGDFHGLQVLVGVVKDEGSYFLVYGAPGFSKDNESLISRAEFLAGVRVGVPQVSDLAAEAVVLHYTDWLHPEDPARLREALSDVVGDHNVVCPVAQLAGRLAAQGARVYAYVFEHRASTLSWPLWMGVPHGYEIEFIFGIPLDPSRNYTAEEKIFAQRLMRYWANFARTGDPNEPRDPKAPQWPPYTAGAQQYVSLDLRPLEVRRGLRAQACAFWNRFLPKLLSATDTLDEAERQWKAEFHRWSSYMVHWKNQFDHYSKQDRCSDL

Compound: COC(=O)Cc1cc(=O)oc2cc(OCCCCCCCCN3CCN(CCNC(=O)Cc4cc(=O)oc5cc(O)ccc45)CC3)ccc12 [12e, Methyl 2-[7-({2-[4-(2-{[2-(7-hydroxy-2-oxo-2H-4-chromenyl)acetyl]amino}etyl)piperazino]oktyl}oxy)-2-oxo-2H-4-chromenyl]acetate]
- Number of proliferating cells (Ki67 index) ([1]; 35 µM): 59.4 ± 2.6%
- Number of proliferating cells (Ki67 index) ([1]; 65 µM): 16.5 ± 12.9%
- IC50 ± S.E.M. hAChE [2]: did not show inhibitory activity
- pIC50 ([2]; read-out: IC50 ± S.E.M. hAChE): < 3.30
- IC50 ± S.E.M. hBChE [3]: did not show inhibitory activity
- pIC50 ([3]; read-out: IC50 ± S.E.M. hBChE): < 3.30
- Reduction in relative number of colonies [4]: 20%
- Cell cycle distribution, G0/G1 phase (in words) [5]: increase in the percentage of the cell population in the G0/G1 phase
- Cell viability of A549 (in words) [6]: reduced cell viability at a concentration of 65 μM
